From patent US20220315624A1, “THIOSTREPTON ANALOGS AND METHODS OF MAKING AND USING SAME” (YALE UNIVERSITY, priority 2019, published 2022)
≈ marks a conversion by molar mass, not a printed value.

Legend:
[1] = Aqueous solubility analysis in MOPS buffer; type: physicochemical; conditions: aqueous 10 mM MOPS buffer, thermodynamic from solid; after 24 hours in 10 mM aqueous MOPS buffer, pH 7.2
Protocol: A 2 dram vial was loaded with ˜0.5 mg of a thiostrepton derivative and suspended in ˜4 mL of aqueous 10 mM MOPS buffer (pKa 7.2). The suspension was stirred vigorously for 24 h to ensure equilibration, then filtered through a […] centrifuge filtration unit. A 3.0 mL aliquot was concentrated, and the dried residue was diluted with 0.30 mL of 1:1 1,4-dioxane/H2O (10× original concentration necessitated by detection limits). The total UV absorbance (200-300 nm) was measured in triplicate by UPLC runs with a photodiode array detector. A calibration curve for each compound was created using data points from 3 trials each of concentrations in 1:1 1,4-dioxane/H2O ranging from […]. These concentrations were plotted against their respective average absorbances. The experimental concentration of each compound was calculated by dividing the found μg/mL value by the residue concentration factor of 10 to yield the actual solubility value.

[2] = test system: E. faecalis MMX 486 VRE; assay: MIC broth microdilution; type: cell-based; conditions: Enterococcus faecalis; E. faecalis MMX 486 VRE; CAMHB; read-out: MIC
Protocol: (§1) Twenty-four test agents were shipped to Micromyx and stored at −20° C. until assayed. The compounds were dissolved in 100% DMSO at 6.46 mg/mL prior to testing. Comparator drugs were supplied by Micromyx and were handled as described below:
(§2) The test organisms for the assay were recent clinical isolates or reference strains acquired from the American Type Culture Collection (ATCC; Manassas, Va.). Upon receipt, the isolates were streaked onto Trypticase Soy Agar II+5% sheep blood (TSAB). Colonies were harvested from the plates and a cell suspension was prepared in Trypticase Soy Broth containing cryoprotectant. Aliquots were then frozen at −80° C. Prior to the assay, the frozen seeds of all bacterial isolates to be tested were thawed and streaked for isolation onto TSAB (BD/BBL, Sparks, Md.; Lot No. 9011894), and were incubated overnight at 35° C.
(§3) The test medium for all isolates was cation-adjusted Mueller Hinton broth (CAMHB; BD/BBL; Lot No. 8190586). CAMHB (Cation Adjusted Mueller Hinton Broth) was supplemented with 3% (v/v) lysed horse blood (LHB; Hemostat, Dixon, Calif.; Lot No. 474990) for the testing of streptococci.
(§4) MIC values were determined using a broth microdilution method as recommended by CLSI. Automated liquid handlers (Multidrop 384, Labsystems, Helsinki, Finland; Biomek 2000 and Biomek F/X, Beckman Coulter, Fullerton Calif.) were used to conduct serial dilutions and make liquid transfers.
(§5) The wells of standard 96-well microdilution plates (Costar 3795, Corning Inc., Corning, N.Y.) were filled with 150 μL of the appropriate diluent in columns 2-12 on the Multidrop 384 (DMSO for the thiostrepton analogs, deionized H2O for vancomycin and ceftazidime). These plates were used to prepare the drug “mother plate” which provided the serial drug dilutions for the replicate “daughter plates”. The compounds (300 μL) were dispensed at 101× the highest concentration to be tested into the appropriate row of the “mother plate”. The Biomek 2000 was used to transfer 150 μL of each stock solution from the wells in Column 1 of the mother plate to make ten subsequent 2-fold serial dilutions. The wells of Column 12 contained no drug and served as the organism growth control wells. The daughter plates were loaded with 190 μL of test medium using the Multidrop 384.
(§6) The daughter plates were prepared on the Biomek F/X instrument which transferred […] of drug solution from each well of the mother plate to each corresponding well of each daughter plate in a single step. The wells of the daughter plates ultimately contained 190 μL of media, 2 μL of drug solution, and 10 μL of inoculum prepared as described below. The final concentration of DMSO (if used as a solvent) in the test well was 1%.
(§7) A standardized inoculum of each organism was prepared per CLSI methods. A suspension of organisms from a fresh plate was prepared in CAMHB to equal the turbidity of a 0.5 McFarland standard. The suspensions were diluted 1:20 in CAMHB, or in the case of streptococci CAMHB with LHB. The inoculum for each organism was dispensed into sterile reservoirs divided by length (Beckman Coulter), and the Biomek 2000 was used to inoculate the plates. Daughter plates were placed on the Biomek 2000 work surface reversed so that inoculation took place from low to high drug concentration. The Biomek 2000 delivered 10 μL of standardized inoculum into each well. These dilutions yielded a final cell concentration in the daughter plates of approximately 5.0×10^5 CFU/mL.
(§8) Plates were stacked 3 high, covered with a lid on the top plate, placed in plastic bags, and incubated at 35° C. for 16-20 hr for all organisms except streptococci which were incubated for 20-24 hr. Following incubation, the microplates were removed from the incubator and viewed from the bottom using a plate viewer. The MIC was read and recorded as the lowest concentration of drug that inhibited visible growth of the organism. […]

[3] = test system: E. faecium MMX 708 VSE; assay: MIC broth microdilution; type: cell-based; conditions: Enterococcus faecium, MMX708VSE; E. faecium MMX 708 VSE; CAMHB; read-out: MIC
Protocol: as §1, §2, §3, §4, §5, §6, §7, §8

[4] = test system: S. aureus ATCC 29213 MSSA; assay: MIC broth microdilution; type: cell-based; conditions: Staphylococcus aureus; S. aureus ATCC 29213 MSSA; CAMHB; read-out: MIC
Protocol: as §1, §2, §3, §4, §5, §6, §7, §8

[5] = test system: E. faecalis ATCC 29212 VSE; assay: MIC broth microdilution; type: cell-based; conditions: Enterococcus faecalis, ATCC29212; E. faecalis ATCC 29212 VSE; CAMHB; read-out: MIC
Protocol: as §1, §2, §3, §4, §5, §6, §7, §8

[6] = test system: E. faecium MMX 485 VRE; assay: MIC broth microdilution; type: cell-based; conditions: Enterococcus faecium; E. faecium MMX 485 VRE; CAMHB; read-out: MIC
Protocol: as §1, §2, §3, §4, §5, §6, §7, §8

[7] = test system: S. pyogenes ATCC 19615; assay: MIC broth microdilution; type: cell-based; conditions: Streptococcus pyogenes, ATCC19615, 20 h; S. pyogenes ATCC 19615; CAMHB with 3% lysed horse blood; read-out: MIC
Protocol: as §1, §2, §3, §4, §5, §6, §7, §8

[8] = test system: S. aureus MMX 8088 MRSA; assay: MIC broth microdilution; type: cell-based; conditions: Staphylococcus aureus; S. aureus MMX 8088 MRSA; CAMHB; read-out: MIC
Protocol: as §1, §2, §3, §4, §5, §6, §7, §8

[9] = test system: E. coli ATCC 25922; assay: MIC broth microdilution; type: cell-based; conditions: Escherichia coli, ATCC25922; E. coli ATCC 25922; CAMHB; read-out: MIC
Protocol: as §1, §2, §3, §4, §5, §6, §7, §8

[10] = test system: S. pneumoniae ATCC 49619 PISP; assay: MIC broth microdilution; type: cell-based; conditions: Streptococcus pneumoniae, ATCC49619, 20 h; S. pneumoniae ATCC 49619 PISP; CAMHB with 3% lysed horse blood; read-out: MIC
Protocol: as §1, §2, §3, §4, §5, §6, §7, §8

[11] = test system: S. aureus isolates; assay: MIC broth microdilution, S. aureus isolates; type: cell-based; conditions: Staphylococcus aureus; across MSSA and MRSA isolates; read-out: MIC values against S. aureus isolates
Protocol: as §1, §2, §3, §4, §5, §6, §7, §8

[12] = Un-inoculated solubility control plate (drug precipitation); type: physicochemical; conditions: at 64 μg/mL in CAMHB
[13] = test system: E. faecalis and E. faecium; assay: MIC broth microdilution, summary over enterococci; type: cell-based; conditions: across the evaluated enterococci, VSE and VRE; read-out: MIC values against E. faecalis and E. faecium
Protocol: as §1, §2, §3, §4, §5, §6, §7, §8

[14] = test system: Gram-positive cocci; assay: MIC broth microdilution, overall summary; type: cell-based; conditions: summary of MIC testing
Protocol: as §1, §2, §3, §4, §5
The daughter plates were prepared on the Biomek F/X instrument which transferred […] of drug solution from each well of the mother plate to each corresponding well of each daughter plate in a single step. […]
as §8, with “Following incubation, the microplates were removed from the incubator and viewed from the bottom using a plate viewer.” left out

| solubility at 24 h [1] | MIC [2] | MIC [3] | MIC [4] | MIC [5] | MIC [6] | MIC [7] | MIC [8] | MIC [9] | MIC [10] | MIC [11] | Precipitation in CAMHB [12] | MIC [13] | SMILES | Activity among the evaluated analogs / against evaluated Gram-positive cocci (summary in words) [14] |
| --- | --- | --- | --- | --- | --- | --- | --- | --- | --- | --- | --- | --- | --- | --- |
| 16.2 µg/mL (≈ 9.26 µM) | 1 µg/mL (≈ 0.571 µM) | 1 µg/mL (≈ 0.571 µM) | 0.5 µg/mL (≈ 0.286 µM) | 0.5 µg/mL (≈ 0.286 µM) | 0.25 µg/mL (≈ 0.143 µM) | 0.004 µg/mL (≈ 0.00229 µM) | 0.5 µg/mL (≈ 0.286 µM) | > 64 µg/mL | 0.004 µg/mL (≈ 0.00229 µM) | 0.25 to 0.5 µg/mL (≈ 0.143 to 0.286 µM) | distinct precipitation | – | C=C(NC(=O)c1csc(C2=N[C@@H]3c4csc(n4)[C@H]4NC(=O)c5csc(n5)[C@H]([C@](C)(O)[C@@H](C)O)NC(=O)C5CSC(=N5)/C(=C/C)NC(=O)[C@H]([C@@H](C)O)NC(=O)c5csc(n5)[C@]3(CC2)NC(=O)[C@H](C)NC(=O)C(=C)NC(=O)[C@H](C)NC(=O)[C@H]([C@@H](C)CC)N[C@@H]2C=Cc3c([C@H](C)O)cc(nc3[C@H]2O)C(=O)O[C@@H]4C)n1)C(=O)NC(=CNC(=O)C(C)C)C(N)=O [RJS-04] | – |
| < 1 µg/mL | 0.25 µg/mL (≈ 0.137 µM) | 0.25 µg/mL (≈ 0.137 µM) | 0.25 µg/mL (≈ 0.137 µM) | 0.25 µg/mL (≈ 0.137 µM) | 0.12 µg/mL (≈ 0.066 µM) | 0.002 µg/mL (≈ 0.0011 µM) | 0.5 µg/mL (≈ 0.275 µM) | > 64 µg/mL | < 0.001 µg/mL | 0.25 to 0.5 µg/mL (≈ 0.137 to 0.275 µM) | distinct precipitation | 0.12 to 0.25 µg/mL (≈ 0.066 to 0.137 µM) | C=C(NC(=O)c1csc(C2=N[C@@H]3c4csc(n4)[C@H]4NC(=O)c5csc(n5)[C@H]([C@](C)(O)[C@@H](C)O)NC(=O)C5CSC(=N5)/C(=C/C)NC(=O)[C@H]([C@@H](C)O)NC(=O)c5csc(n5)[C@]3(CC2)NC(=O)[C@H](C)NC(=O)C(=C)NC(=O)[C@H](C)NC(=O)[C@H]([C@@H](C)CC)N[C@@H]2C=Cc3c([C@H](C)O)cc(nc3[C@H]2O)C(=O)O[C@@H]4C)n1)C(=O)NC(=CNC(=O)c1ccc(Cl)cc1)C(N)=O [RJS-09] | most activity |
